# Measured values reported in patent US8263044B2, “Stilbene like compounds as novel HDAC inhibitors” (Orchid Research Laboratories Limited, priority 2005, dated 2012).
# Read-outs that look alike come from different tables or passages of the source.
# What was measured:
# [1] = test system: NCIH460, HCT116, MDAMB231/U251; assay: Anti-cancer screen, mean GI50 over the cell lines; assay type: cell-based; conditions: mean over the three cell lines; no unit in table
# Protocol: (§1) Experimental drugs are screened for anti-cancer activity in three cell lines for their GI50, TGI and LC50 values (using five concentrations for each compound). The cell lines are maintained in DMEM containing 10% fetal bovine serum. 96 well micro titer plates are inoculated with cells in 100 μL for 24 h at 37° C., 5% CO2, 95% air and 100% relative humidity. 5000 HCT 116 cells/well, 5000 NCIH 460 cells/well and 5000 U251 cells/well are plated. A separate plate with these cell lines is also inoculated to determine cell viability before the addition of the compounds (T0) (See Table I).
# (§2) Following 24-hour incubation, experimental drugs are added to the 96 well plates. Each plate contains one of the above cell lines and the following in triplicate: five different concentrations (0.01, 0.1, 1, 10 and 100 μM) of four different compounds, appropriate dilutions of a cytotoxic standard and control (untreated) wells. Compounds are dissolved in DMSO to make 20 mM stock solutions on the day of drug addition and frozen at −20° C. Serial dilutions of these 20 mM stock solutions are made in complete growth medium such that 100 μL of these drug solutions in medium, of final concentrations equaling 0.01, 0.1, 1, 10 and 100 μM can be added to the cells in triplicate. […] (See Table I).
# (§3) For T0 measurement, 24 hours after seeding the cells, 10 μL of 3-(4,5-Dimethyl-2-thiazolyl)-2,5-diphenyl-2H-tetrazolium (MTT) solution per well is added and incubation carried out for 3 hours at 37° C., 5% CO2, 95% air and 100% relative humidity, protected from light. Cells incubated with compounds for 48 hours are treated similarly except with the addition of 20 μL MTT solution per well and a subsequent incubation under the same conditions. After 3 hours of MTT incubation, well contents are aspirated carefully followed by addition of 150 μL DMSO per well. Plates are agitated to ensure solution of the formazan crystals in DMSO and absorbance read at 570 nm. (See Table I).
# Percent growth is calculated for each compound's concentration relative to the control and zero measurement wells (T0; viability right before compound addition). […]
# [2] = test system: HDAC activity (Mouse Liver Extract); assay: Histone Deacetylase (HDAC) Inhibition Assay using Boc-Lys (Ac)-AMC Substrate; assay type: biochemical; conditions: mouse liver enzyme; for HDAC Inhibition 1 μM: inhibitor at 1 μM; for HDAC Inhibition 1 μM / HDAC Inhibition 10 μM: in % (unit assumed); for HDAC Inhibition 10 μM: inhibitor at 10 μM
# Protocol: Histone Deacetylase (HDAC) Inhibition Assay using Boc-Lys (Ac)-AMC Substrate: Inhibition of HDAC has been implicated to modulate transcription and to induce apoptosis or differentiation in cancer cells. The fluorometric assay provides a fast and fluorescence based method that eliminates radioactivity, extractions or chromatography, as used in traditional assays. The assay based on two steps. First, the HDAC fluorometric substrate, which comprises an acetylated lysine side chain, is incubated with a sample containing HDAC activity (Mouse Liver Extract). Deacetylation of the substrate sensitizes the substrate, in the second step; treatment with the Trypsin stop solution produces a fluorophore that can be easily analyzed using fluorescence plate reader.
# Assay was done in 96 well black microplate and total volume of the assay is 100 ul. Mouse liver enzyme is diluted 1:6 with HDAC buffer. Enzyme cocktail made of 10 ul of diluted enzyme and 30 ul of HDAC buffer. 40 ul of enzyme cocktail dispensed into each well. 10 ul of different concentrations of inhibitor added in to each well, except enzyme control well. Preincubated the plate at 30° C. for 5 minutes. The HDAC reaction is started by adding 50 ul of HDAC substrate (Boc-Lys (Ac)-AMC Substrate) solution. Incubated the plate at 30° C. for 30 minutes. Adding 100 ul of Trypsin stop solution stops the reaction. The plate is incubated again at 30° C. for 20-30 minutes. The release of AMC is monitored by measuring the fluorescence at excitation wavelength of 365 or 360 nm and emission wavelength of 440 or 460 nm. Buffer and substrate alone kept for blank subtraction. (Dennis Wegener et al, Anal. Biochem, 321, 2003, 202-208).
# MDAMB231/U251 [3] = assay: cells; conditions: 48 h, read-out: MDAMB231/U251 LC50
# NCIH 460 cells = assay: cells; conditions: for GI50: read-out: NCIH460 GI50; for CC50: read-out: NCIH460 LC50
# Protocol: as §1, §2, §3
# (§4) Percent growth is calculated for each compound's concentration relative to the control and zero measurement wells (T0; viability right before compound addition).
# (§5) If a test well's O.D. value is lower than the T0 measurement for that cell line, then, % Growth=(test−zero)/zero×100
# HCT 116 cells = assay: cells; conditions: for GI50: read-out: HCT116 GI50; for CC50: read-out: HCT116 LC50
# Protocol: as §1, §2, §3, §4, §5
# MDAMB231/U251 [4] = assay: cells; conditions: 48 h; for GI50: read-out: MDAMB231/U251 GI50
# Protocol: as §1, §2, §3, §4, §5
# [5] = NCIH460, MTT, 48 h, tested at 0.01-100 μM, no unit in table
# [6] = HCT116, MTT, 48 h, tested at 0.01-100 μM, no unit in table
# [7] = MDAMB231/U251, MTT, tested at 0.01-100 μM, no unit in table
SMILES,GI50 [1] [µM],HDAC Inhibition 1 μM [2],HDAC Inhibition 10 μM [2],IC50 [2] [µM],CC50 (MDAMB231/U251 [3]) [µM],"GI50 (NCIH 460 cells; Homo sapiens, NCI-H460, 48 h) [µM]","CC50 (NCIH 460 cells; Homo sapiens, NCI-H460, 48 h) [µM]","GI50 (HCT 116 cells; Homo sapiens, HCT-116, 48 h) [µM]","CC50 (HCT 116 cells; Homo sapiens, HCT-116, 48 h) [µM]",GI50 (MDAMB231/U251 [4]) [µM],NCIH460 TGI (NCIH 460 cells; [5]),GI50 (NCIH 460 cells; [5]) [µM],CC50 (NCIH 460 cells; [5]) [µM],HCT116 TGI (HCT 116 cells; [6]),GI50 (HCT 116 cells; [6]) [µM],CC50 (HCT 116 cells; [6]) [µM],MDAMB231/U251 TGI (MDAMB231/U251 [4]; [7]),GI50 (MDAMB231/U251 [4]; [7]) [µM],"CC50 (MDAMB231/U251 [4]; read-out: MDAMB231/U251 LC50, MDAMB231/U251, MTT, tested at 0.01-100 μM, no unit in table) [µM]"
"COc1ccc(/C(=C/c2cccc(Cl)c2)C(=O)NCCCCCC(=O)NO)cc1 [Example 28, (2Z)-3-(3-Chlorophenyl)-2-(4-methoxyphenyl)-N-[6-(hydroxyamino)-6-oxohexyl]acrylamide]",6,70.82,90.20,0.44,100,9,82,5,45,4,,,,,,,,,
"COc1cc(/C=C(\C(=O)NCCCCCC(=O)NO)c2ccc(F)cc2)cc(OC)c1 [Example 1, (2Z)-3-(3,5-Dimethoxyphenyl)-2-(4-fluorophenyl)-N-[6-(hydroxyamino)-6-oxohexyl]acrylamide]",2.6,53.76,66.42,0.22,75,> 100,> 100,5,70,0.1,,,,,,,,,
"COc1ccc(/C=C(\C(=O)NCCCCCC(=O)NO)c2ccccc2)cc1 [Example 29, (2Z)-3-(4-Methoxyphenyl)-2-(phenyl)-N-[6-(hydroxyamino)-6-oxohexyl]acrylamide]",13,,,,90,28,89,5,78,6,,,,,,,,,
"O=C(CCCCCNC(=O)/C(=C\c1cc(F)cc(F)c1F)c1ccc([N+](=O)[O-])cc1)NO [Example 27, (2Z)-3-(2,3,5-Trifluorophenyl)-2-(4-nitrophenyl)-N-[6-(hydroxyamino)-6-oxohexyl]acrylamide]",14.8,,,,82,30,96,7,> 100,7.5,,,,,,,,,
"CSc1ccc(/C=C(\C(=O)NCCCCCC(=O)NO)c2ccc(F)cc2)cc1 [Example 16, (2Z)-3-(4-Thiomethylphenyl)-2-(4-fluorophenyl)-N-[6-(hydroxyamine)-6-oxohexyl]acrylamide]",0.7,68,83,0.061,90,0.01,24,1.9,32,0.15,,,,,,,,,
"COc1cc(/C=C(\C(=O)NCCCCCC(=O)NO)c2ccc(F)cc2)ccc1O [Example 46, (2Z)-3-(4-Hydroxy-3-methoxyphenyl)-2-(4-fluorophenyl)-N-[6-(hydroxyamino)-6-oxohexyl]acrylamide]",5,60.53,70.82,,> 100,5,> 100,7,> 100,3.5,,,,,,,,,
"O=C(CCCCCNC(=O)/C(=C\c1ccc(Cl)o1)c1ccc(F)cc1)NO [Example 37, (2Z)-3-(5-Chloro-2-furyl)-2-(4-fluorophenyl)-N-[6-(hydroxyamino)-6-oxohexyl]acrylamide]",12.3,56.87,83.89,,80,26,90,6,90,5,,,,,,,,,
"CSc1ccc(/C=C(\C(=O)NCCCCCC(=O)NO)c2ccc([N+](=O)[O-])cc2)cc1 [Example 41, (2Z)-3-(4-Thiomethylphenyl)-2-(4-nitrophenyl)-N-[6-(hydroxyamino)-6-oxohexyl]acrylamide]",10,68.69,92.83,,90,15,94,6,90,9,,,,,,,,,
"O=C(CCCCCNC(=O)/C(=C\c1ccc(Br)s1)c1ccc(Br)cc1)NO [Example 13, (2Z)-3-(5-Bromo-2-thienyl)-2-(4-bromophenyl)-N-[6-(hydroxyamino)-6-oxohexyl]acrylamide]",5,53.83,89.18,2.95,80,7,75,5,70,3,,,,,,,,,
"CON(C)C(=O)CCCCCNC(=O)/C(=C\c1ccc(SC)cc1)c1ccc(F)cc1 [Example 18, (2Z)-3-(4-Thiomethylphenyl)-2-(4-fluorophenyl)-N-[6-(N,O dimethylamine)-6-oxohexyl]acrylamide]",18.8,2.26,0.89,,> 100,0.5,> 100,55,> 100,0.8,,,,,,,,,
"CSc1ccc(/C=C(\C(=O)NCCCCCC(=O)NOCc2ccccc2)c2ccc(F)cc2)cc1 [Example 51, (2Z)-3-(4-Thiomethylphenyl)-2-(4-fluorophenyl)-N-[6-(O-benzyl hydroxyamino)-6-oxohexyl]acrylamide]",16.5,,,,,,,,,,80,30,> 100,65,10,84,35,9.6,86
O=C(CCCCCNC(=O)/C(=C\c1ccc(F)c(F)c1)c1ccc(F)cc1)Nc1nccs1 [Example 36],1.1,,,,> 100,2,> 100,> 100,> 100,0.2,,,,,,,,,
"Cc1cc(/C=C(\C(=O)NCCCCCC(=O)NO)c2ccc(F)cc2)ccc1F [Example 45, (2Z)-3-(4-Fluoro-3-methylphenyl)-2-(4-fluorophenyl)-N-[6-(hydroxyamino)-6-oxohexyl]acrylamide]",9.3,,,,> 100,16,89,6.8,73,5,,,,,,,,,
